The values that follow come from patent US8173423B2, “Diagnosis and treatment of T-cell acute lymphoblastic leukemia” (VIB VZW, priority 2006, dated 2012).

Non-standard residues stand in square brackets, D forms with d. Residues, ends and D or L forms follow the SMILES beside them. *: point of attachment. Nle = CCCC[C@H](N)C(=O)O; Cbz = O=C(OCc1ccccc1)*

The subject of one data set is melanoma cell lines. The note with it: Miele 2006; cited from earlier work.
In the next data set the test system is melanoma xenografts. The note with it: Miele 2006; cited from earlier work.
Data set [1] deals with ALL-SIL cells. The data set is described as follows: Proliferation, viability and cell cycle of T-ALL cell line (viable cell count, FACS). It is filed as cell-based, human. To be noted: for proliferation: proliferation period of 3 days. The procedure:
(§1) DND-41, HSB-2, RPMI-8402, ALL-SIL, MOLT-4, LOUCY, P12-ICHIKAWA, CCRF-CEM (DSMZ, Braunschweig, Germany) were cultured in RPMI-1640 supplemented with 20% fetal calf serum. The number or percentage of viable cells was counted with a Vi-cell XR cell viability analyzer (Beckman Coulter, Fullerton, Calif.). For differentiation experiments, cells were cultured during a period of 6 days and electroporated on the first day and again on the 4th day with 50 nM siRNA. MYB stealth select siRNAs were purchased from Invitrogen (Carlsbad, Calif.). […] Electroporation with a stealth siRNA directed against ERBB4 (Invitrogen, Carlsbad, Calif.), a gene not expressed in these cell lines, served as a control. […] For inhibition of NOTCH1, we treated the cell ines with 1 μM of Compound E (gamma-secretase inhibitor XXI, Calbiochem, San Diego, Calif.) or DMSO (control). The percentage proliferation was calculated by comparing the increase of the number of viable cells from treated cells to the increase of the number of viable cells treated with DMSO and electroporated with a control siRNA, and this for a proliferation period of 3 days.
(§2) Analysis of CD1a, CD3, CD4 and CD8 expression and cell cycle analysis was performed on 0.3-1×10^6 cells 6 days after the first electroporation with siRNA. We used the PE/CD1a, and the TriTEST CD4 FITC/CD8 PE/CD3 PerCP Reagent kit (Becton Dickinson, San Jose, Calif.) and the CycleTEST™ PLUS DNA Reagent Kit (Becton Dickinson). After staining, the cells were detected on a FACSCanto Flow Cytometer (Becton Dickinson) and the data were analyzed with the BD FACSDiva software (Becton Dickinson). Unstained cells and cells treated with ERBB4 siRNA were used as controls. Cell sorting was performed after staining of the cells with the TriTEST CD4/CD8/CD3 kit. Cells were separated into two fractions (differentiated and undifferentiated) using the FACSVantage SE system (Becton Dickinson).
(§3) Cell lines were electroporated every four days with 50-250 nM siRNA. MYB stealth select siRNAs (MYB-HSS106819) were purchased from Invitrogen (Carlsbad, Calif.).

For data set [2], the system named is RPMI-8402 cells. The description is as above. The data set is classed as cell-based, human. The note with it: for proliferation: proliferation period of 3 days. As for the experimental part: as §1, §2, §3
For another data set, the system named is MOLT-4 cells. The data set is described as follows: Differentiation of T-ALL cell line after MYB knockdown (FACS of CD1a, CD3, CD4, CD8). It is filed as cell-based, human. As for the experimental part:
as §1, §2

Data set [3] deals with ALL-SIL cells. The description is as above. It is filed as cell-based, human. As for the experimental part:
as §1, §2

Data set [4] relates to RPMI-8402 cells. The data set is described as above. It is filed as cell-based, human. The procedure: as §1, §2
For a further data set, the system named is MYB. As to the kind of experiment: Knockdown of MYB expression by siRNA electroporation, protein blot analysis. The note with it: among MYB stealth select siRNAs. It is filed as cell-based, human. The procedure: FIG. 1: Effect of knockdown of MYB expression on T-ALL cell lines. (a) Protein blot analysis showing that electroporation of three different MYB siRNAs in RPMI-8402 cells causes a decrease of MYB expression, compared with electroporation with no siRNA or control siRNA (ERBB4). […] Control cells were treated with dimethylsulfoxide or a control siRNA. Error bars indicate s.e.m.
DND-41, HSB-2, RPMI-8402, ALL-SIL, MOLT-4, LOUCY, P12-ICHIKAWA, CCRF-CEM (DSMZ, Braunschweig, Germany) were cultured in RPMI-1640 supplemented with 20% fetal calf serum. The number or percentage of viable cells was counted with a Vi-cell XR cell viability analyzer (Beckman Coulter, Fullerton, Calif.). For differentiation experiments, cells were cultured during a period of 6 days and electroporated on the first day and again on the 4th day with 50 nM siRNA. MYB stealth select siRNAs were purchased from Invitrogen (Carlsbad, Calif.). […] Electroporation with a stealth siRNA directed against ERBB4 (Invitrogen, Carlsbad, Calif.), a gene not expressed in these cell lines, served as a control. […] The percentage proliferation was calculated by comparing the increase of the number of viable cells from treated cells to the increase of the number of viable cells treated with DMSO and electroporated with a control siRNA, and this for a proliferation period of 3 days. […]

The test system of data set [5] is Ras-transformed fibroblasts. To be noted: Miele 2006; cited from earlier work.
The next data set concerns T-ALL cells. To be noted: Miele 2006; cited from earlier work.
A further data set has as its system RPMI-8402. To be noted: reference 4; cited from earlier work.
The subject of a further data set is ALL-SIL. The note with it: reference 4; cited from earlier work.
In another data set the test system is MOLT-4. To be noted: reference 4; cited from earlier work.
Where [6] appears, read: siRNA electroporation and/or 1 μM Compound E, vs DMSO and control siRNA.
The mark [7] stands for this setting: 50 nM siRNA electroporated day 1 and day 4, 6 days.
Setting [8] is: flow-sorted cells analysed 10 d later.

For the compound `CCCC[C@@H](C=O)NC(=O)[C@H](CC(C)C)NC(=O)[C@H](CC(C)C)NC(=O)OCc1ccccc1` [z-Leu-leu-Nle-CHO] (Cbz-Leu-Leu-[Nle]-aldehyde), the apoptosis result in the data set on melanoma cell lines and in the data set on melanoma xenografts was “induces apoptosis” throughout.

With “MYB siRNA 1: MYB stealth select siRNA (Invitrogen), sequence 5′UAUAGUGUCUCUGAAUGGCUGCGGC (SEQ ID NO:1) with complementary strand SEQ ID NO:2 (chain 2 GCCGCAGCCAUUCAGAGACACUAUA; Invitrogen Stealth Select siRNA, chemistry not given here)”, the cell cycle entry with ALL-SIL cells [1] (siRNA electroporation) and in the data set on RPMI-8402 cells [2] (siRNA electroporation) was “only a limited effect” each time. Moreover, the proliferation entry in the data set with ALL-SIL cells [1] (setting [6]) and with RPMI-8402 cells [2] (setting [6]) was “only a limited effect” in each case. For the same compound, the “viability / cell survival” value with ALL-SIL cells [1] (setting [6]) and in the data set with RPMI-8402 cells [2] (setting [6]) was “only a limited effect” each time. Also, the “differentiation (changes in expression of CD1a, CD3, CD4 or CD8 cell surface markers)” value in the data set with MOLT-4 cells (setting [7]), with ALL-SIL cells [3] (setting [7]) and with RPMI-8402 cells [4] (setting [7]) was “results in the differentiation” each time. Besides, the reversibility of differentiation entry in the data set on MOLT-4 cells (setting [8]), in the data set with ALL-SIL cells [3] (setting [8]) and in the data set with RPMI-8402 cells [4] (setting [8]) was “irreversible” each time. The “efficiency of siRNA” value in the data set on MYB is “most efficient”.

With `CCC(C)C(NC(=O)OCc1ccccc1)C(=O)NC(C=O)CC(C)C` (stereo not drawn) [cbz-IL-CHO] (Cbz-Ile-Leu-aldehyde; configuration not given here), the antineoplastic activity result in [5] was “Notch-1—dependent antineoplastic activity”.

With `C[C@H](NC(=O)Cc1cc(F)cc(F)c1)C(=O)N[C@H]1N=C(c2ccccc2)c2ccccc2N(C)C1=O` [Compound E, (S, S)-2-[2-(3,5-Difluorophenyl)-acetylamino]-N-(1-methyl-2-oxo-5-phenyl-2,3-dihydro-1H-benzo[e][1,4]diazepin-3-yl)-propionamide], the growth entry in the data set on T-ALL cells is on record as “causes growth arrest”. The proliferation result in the data set with ALL-SIL cells [1] (setting [6]) is “inhibition of the proliferation”; in the data set on RPMI-8402 cells [2] (setting [6]), “inhibition of the proliferation”; in the data set on RPMI-8402, “inhibit the proliferation”; in the data set on ALL-SIL it was “inhibit the proliferation”. For the same compound, the “sensitivity to GSI treatment” value in the data set on MOLT-4 is “not sensitive”.
